Consider eight molecules from patent publication US11008333B2, “Crystalline forms of hydrochloride salts of thienopyrimidine compound” (HANMI PHARM. CO., LTD., priority 2015, dated 2021).

≈ marks a conversion by molar mass, not a printed value. Like-named read-outs stand apart in the source and are kept apart here.

Data set [1] can be described thus: Dynamic vapor sorption (DVS), water absorption / hygroscopicity. The data set is classed as physicochemical. As for the experimental part:
Dynamic vapor sorption (DVS) analysis was performed in a DVS advantage (Surface measurement system, United Kingdom) analyzer at 25° C. with a relative humidity of 0% to 90%. A sample in an amount of 10 mg was placed into a wire-mesh vapor sorption balance pan and then attached to a DVS advantage dynamic vapor sorption balance via surface measurement systems. Until a stable weight was achieved (99.5% completion of steps), the sample was applied to a ramping profile with a relative humidity of 10% to 90% with a 10% increase of the sample while maintaining the sample in each step. Upon completion of the sorption cycle, the sample was dried using the same process while maintaining a relative humidity of […]. The changes in the sample weight during the adsorption/desorption cycle (repeated 3 times) were recorded and the hygroscopicity of the sample was measured.

Data set [2] in a line: Storage under long-term, accelerated and stress testing conditions. The data set is classed as physicochemical. Conditions: for expected stability: expectation from DVS.
Data set [3] can be described thus: Measurement of water solubility (HPLC). The data set is classed as physicochemical. As to conditions: for pH of solution: solution of the water solubility test, 100 mg/mL in water. How it is done:
Specifically, each sample of the polymorphs in an amount of 500 mg was added to 5 mL of water, blended at […] to 25° C. using a Voltamixer, and filtered with a GH Polypro membrane Acrodisc, PALL (pore size: 0.2 μm). The filtrate was diluted with a diluent used for HPLC in a 1:100 ratio to obtain the samples.

The test system of data set [4] is mutant epidermal growth factor receptor tyrosine kinase. As to conditions: disclosed in WO 2011/162515; cited from earlier work.
Data set [5] concerns cancer cells induced by a mutation in epidermal growth factor receptor (EGFR) tyrosine kinase. Conditions: disclosed in WO 2011/162515; cited from earlier work.
[6] abbreviates: relative humidity of 10% to 90%, 25° C.
The mark [7] stands for this setting: accelerated condition (40° C., relative humidity 75%).
The mark [8] stands for this setting: long-term storage condition (25° C., relative humidity 60%).
Setting [9] is: non-ionic water, 500 mg in 5 mL (conc. of solution 100 mg/mL), 2θ° C. to 25° C., amount dissolved based on compound of Formula 1, HPLC.
[10] abbreviates: relative humidity of 40% or higher.
Where [11] appears, read: relative humidity of 10% to 70%.
[12] abbreviates: relative humidity of 70% or higher.

With `C=CC(=O)Nc1cccc(Oc2nc(Nc3ccc(N4CCN(C)CC4)cc3)nc3ccsc23)c1` [Comparative Example 1, N-(3-(2-(4-(4-methylpiperazin-1-yl)phenylamino)thieno[3,2-d]pyrimidin-4-yloxy)phenyl)acrylamide], in data set [1] (setting [6]), the “level of water absorption (hygroscopicity) in DVS” value (from here on “level of water absorption”) was “very high level”. The expected stability entry in data set [2] (setting [7]) and in data set [2] (setting [8]) was “unstable” each time.

Usually Solubility stands for the concentration that dissolves in the medium under given conditions. Consider `C=CC(=O)Nc1cccc(Oc2nc(Nc3ccc(N4CCN(C)CC4)cc3)nc3ccsc23)c1` [Example 1, N-(3-(2-(4-(4-methylpiperazin-1-yl)phenylamino)thieno[3,2-d]pyrimidin-4-yloxy)phenyl)acrylamide], for which the “reversible water sorption and desorption in DVS” value in data set [1] (complete range of 0-90% RH) is “about 3%”. Moreover, the “level of water absorption” value is recorded as 2-3% in data set [1] (setting [6]) and “very low level of change” in data set [1] (relative humidity of 10% to 90%, 25° C., listed as ex. 1). In addition, the “water solubility compared with the other forms” value in data set [3] (comparison of Table 16) is reported as “highest water solubility”. Also, the Solubility in data set [3] (setting [9]) stood at 50390 µg/mL (≈ 104 mM). The same molecule yielded a pH of solution in data set [3] of 1.7. For the same molecule, the stability result in data set [2] (setting [7]), in data set [2] (setting [8]) and in data set [2] (stress testing condition (60° C.)) was “fully stable” throughout.

In the case of `C=CC(=O)Nc1cccc(Oc2nc(Nc3ccc(N4CCN(C)CC4)cc3)nc3ccsc23)c1` [Example 3, N-(3-(2-(4-(4-methylpiperazin-1-yl)phenylamino)thieno[3,2-d]pyrimidin-4-yloxy)phenyl)acrylamide], the “level of water absorption” value in data set [1] (relative humidity of 10% to 40%) is recorded as “very low level”; in data set [1] (setting [10]), “about 9%”; in data set [1] (relative humidity of 40% or higher, listed as ex. 3) it was “about 9%”. Moreover, the Solubility in data set [3] (setting [9]) was found to be 7760 µg/mL (≈ 15.9 mM). In data set [3], the pH of solution is reported as 2.1.

For `C=CC(=O)Nc1cccc(Oc2nc(Nc3ccc(N4CCN(C)CC4)cc3)nc3ccsc23)c1` [Example 4, N-(3-(2-(4-(4-methylpiperazin-1-yl)phenylamino)thieno[3,2-d]pyrimidin-4-yloxy)phenyl)acrylamide], the “level of water absorption” value in data set [1] (relative humidity of 10% to 30%) is “very high”; in data set [1] (relative humidity of 10% to 30%, listed as ex. 4) it was “about 6%”; in data set [1] (setting [10]), “very weak”; in data set [1] (relative humidity of 40% or higher, listed as ex. 4) it was “very low and constant level”. In data set [3] (setting [9]), this molecule gave a Solubility of 10660 µg/mL (≈ 21.9 mM). In addition, the pH of solution in data set [3] came to 1.7.

As to `C=CC(=O)Nc1cccc(Oc2nc(Nc3ccc(N4CCN(C)CC4)cc3)nc3ccsc23)c1` [Example 5, N-(3-(2-(4-(4-methylpiperazin-1-yl)phenylamino)thieno[3,2-d]pyrimidin-4-yloxy)phenyl)acrylamide], the “level of water absorption” value in data set [1] (setting [11]) is “very low”; in data set [1] (relative humidity of 10% to 70%, listed as ex. 5), “very low level”; in data set [1] (setting [12]), “about 7%”; in data set [1] (relative humidity of 70% or higher, listed as ex. 5), “about 7%”. In data set [3] (setting [9]), this molecule came in with a Solubility of 420 µg/mL (≈ 0.863 mM). For the same molecule, the pH of solution in data set [3] is recorded as 4.7.

Consider `C=CC(=O)Nc1cccc(Oc2nc(Nc3ccc(N4CCN(C)CC4)cc3)nc3ccsc23)c1` [Example 6, N-(3-(2-(4-(4-methylpiperazin-1-yl)phenylamino)thieno[3,2-d]pyrimidin-4-yloxy)phenyl)acrylamide], for which the “level of water absorption” value was “about 2%” in data set [1] (setting [6]) and “about 2%” in data set [1] (relative humidity of 10% to 90%, 25° C., listed as ex. 6). In addition, in data set [3] (setting [9]), the Solubility was determined as 570 µg/mL (≈ 1.17 mM). Further, the pH of solution in data set [3] came to 4.9.

In the case of `C=CC(=O)Nc1cccc(Oc2nc(Nc3ccc(N4CCN(C)CC4)cc3)nc3ccsc23)c1` [Example 7, N-(3-(2-(4-(4-methylpiperazin-1-yl)phenylamino)thieno[3,2-d]pyrimidin-4-yloxy)phenyl)acrylamide], the “level of water absorption” value is given as “very low” in data set [1] (setting [11]); “about 14%” in data set [1] (relative humidity of 10% to 90%, 25° C., listed as ex. 7); “about 14%” in data set [1] (setting [12]).

Regarding `C=CC(=O)Nc1cccc(Oc2nc(Nc3ccc(N4CCN(C)CC4)cc3)nc3ccsc23)c1` [Formula 1 (amorphous free base), N-(3-(2-(4-(4-methylpiperazin-1-yl)phenylamino)thieno[3,2-d]pyrimidin-4-yloxy)phenyl)acrylamide], the “inhibitory activity for mutant EGFR tyrosine kinase” value in data set [4] is on record as “selective inhibitory activity”. The Solubility is 0.1 µg/mL in data set [3] (setting [9]) and under 0.1 µg/mL in data set [3] (water, 20 °C, water, thermodynamic from solid, amorphous free base, read-out: water solubility). Besides, in data set [3], the pH of solution was 7.3. For the same molecule, the “inhibitory activity against growth of cancer cells induced by EGFR mutation, and drug resistance thereof” value in data set [5] is “selective and effective inhibitory activity”.
